Source: patent publication US20240041830A1, “CIRCULATING BIOMARKERS OF RESPONSE TO PD-1/PD-L1 BLOCKADE AND GSK-3 INHIBITION” (Brown University, priority 2022, published 2024)

Tested on: patient-derived CD8+ T cells
Test: ex vivo cytokine profiling of supernatant (Luminex)
Format: cell-based, human
Details: forty-eight hours (1 NM) vs DMSO
Experimental: Human cytokine profiling. Human cell line culture supernatants were analyzed using an R&D systems Human Premixed Multi-Analyte Kit (R&D Systems, Inc., Minneapolis, MN, USA) and a Luminex 200 (RRID: SCR_018025) Instrument (LX200-XPON-RUO, Luminex Corporation, Austin, TX, USA) according to the manufacturer's instructions. Sample levels of TNF-α, 4-1BB/TNFRSF9/CD137, IL-8/CXCL8, Ferritin, IFN-β, IL-10, CCL2/JE/MCP-1, VEGF, CXCL13/BLC/BCA-1, IFN-γ, CCL20/MIP-3 α, CCL3/MIP-1 α, CCL22/MDC, CCL4/MIP-1 β, Fas Ligand/TNFSF6, IL-17/1L-17A, IL-2, BAFF/BLyS/TNFSF13B, GM-CSF, CXCLS/ENA-78, TRANCE/TNFSF11/RANK L, CXCL9/MIG, G-CSF, IFN-γ R1/CD119, VEGFR3/Flt-4, C-Reactive Protein/CRP, CXCL11/I-TAC, IL-21, CXCL14/BRAK, IL-6, Fas/TNFRSF6/CD95, TRAIL R3/TNFRSF10C, IL-4, CCL5/RANTES, PD-L1/137-H1, CCL7/MCP-3/MARC, Chitinase 3-like 1, CXCL10/IP-10/CRG-2, IL-1 μ/IL-1F2, IL-7, Prolactin, CCL8/MCP-2, TRAIL R2/TNFRSF10B, M-CSF, IL-15, Granzyme B, IFN-α, TREM-1, IL-12/1L-23 p40, TRAIL/TNFSF10, CCL11/Eotaxin, and 1L-18/1L-1F4. Quantitative analysis with 6 standards and a minimum of 50 counts per bead region was used with the Luminex to generate analyte values reported as picograms/milliliter (pg/mL). Sample concentrations less than the lower limit of detection for each particular analyte were recoded as the lower limit value divided by 10. Sample concentrations above the upper limit of detection for a particular analyte were recoded as the upper limit of detection.
The inventors collected peripheral blood during the patient's best response at fifteen months, corresponding with their lowest concentration of sIL-2 r in the peripheral blood, and isolated CD8+, non-ATLL T cells for further analysis. The inventors then treated these CD8+ cells ex vivo with elraglusib and assessed changes in cytokine, chemokine, and growth factor profiles in the cell culture supernatant using Luminex (LX200) technology and a custom cytokine panel described by Huntington, Louie, Zhou, & EI-Deiry, A high-throughput customized cytokinome screen of colon cancer cell responses to small-molecule oncology drugs. Oncotarget, 12, 1980-1991 (2021).
Treatment of patient-derived CD8+ T cells with elraglusib increases granzyme B, TRAIL, and IFN-gamma secretion while decreasing VEGF, TNF-alpha, and CCL5/RANTES concentrations in cell culture supernatant in comparison to control groups. Patient-derived CD8+ cytotoxic T cells were treated with elraglusib for forty-eight hours (1 NM) or control (DMSO) and cytokine concentration was measured in cell culture supernatants. (Statistical significance was calculated with GraphPad Prism 9.3.1 using unpaired t tests and is denoted on each plot as follows: P>0.05=n.s., P≤0.05=*, P≤0.01=**, P≤0.001=***, and P≤0.0001=**** (N=3).

## Cn1cc(C2=C(c3coc4ccc(F)cc34)C(=O)NC2=O)c2cc3c(cc21)OCO3 [elraglusib]
  CCL5/RANTES concentration in supernatant: decreasing
  IFN-gamma secretion: increases
  TNF-alpha concentration in supernatant: decreasing
  TRAIL secretion: increases
  VEGF concentration in supernatant: decreasing
  granzyme B secretion: increases
